How the values were obtained:
[1] = system: CPT-K5; assay: MTT-microtiter plate tetrazolinium cytotoxicity assay, CPT-K5 (camptothecin-resistant variant); assay type: cell-based; settings: Homo sapiens, CPT-K5 cells (camptothecin-resistant variant of RPMI 8402), continuous exposure 3-4 days
Protocol: (§1) Test B. Inhibition of Cell Growth: MTT-microtiter Plate Tetrazolinium Cytotoxicity Assay (RPMI 8402, CPT-K5, U937, U937/CR Cells)
(§2) The cytotoxicity is determined using the MTT-microtiter plate tetrazolinium cytotoxicity assay (MTA), see Chen A. Y. et al. Cancer Res. 1993, 53, 1332; Mosmann, T. J., J. Immunol. Methods 1983, 65, 55; and Carmichael, J. et al. Cancer Res. 1987, 47, 936. The human lymphoblast RPMI 8402 and its camptothecin-resistant variant cell line, CPT-K5 were provided by Dr. Toshiwo Andoh (Anchi Cancer Research Institute, Nagoya, Japan), see Andoh, T.; Okada, K, Adv. in Pharmacology 1994, 29B, 93. Human U-937 myeloid leukemia cells and U-937/CR cells were described by Rubin et al., J. Biol. Chem., 1994, 269, 2433-2439. The cytotoxicity assay is performed by using 96-well microtiter plates using 2000 cells/well, in […] of growth medium. Cells are grown in suspension at 37° C. in 5% CO2 and maintained by regular passage in RPMI medium supplemented with 10% heat-inactivated fetal bovine serum, L-glutamine (2 mM), penicillin (100U/mL), and streptomycin (0.1 mg/mL). For determination of IC50, cells are exposed continuously for 3-4 days to varying concentrations of drug, and MTT assays were performed at the end of the fourth day. […] All assays are performed at least twice in 6 replicate wells. […]

[2] = system: HL60/MX2; assay: MTT-microtiter plate tetrazolinium cytotoxicity assay, HL60/MX2; assay type: cell-based; settings: Homo sapiens, HL60/MX2 cells
Protocol: as §1, §2

[3] = system: RPMI8402; assay: MTT-microtiter plate tetrazolinium cytotoxicity assay, RPMI8402; assay type: cell-based; settings: Homo sapiens, RPMI 8402, RPMI8402 cells, continuous exposure 3-4 days
Protocol: as §1, §2

[4] = system: KBV-1; assay: MTT-microtiter plate tetrazolinium cytotoxicity assay, KBV-1; assay type: cell-based; settings: Homo sapiens, KB-V1, KBV-1 cells
Protocol: as §1, §2

[5] = system: KBH5.0; assay: MTT-microtiter plate tetrazolinium cytotoxicity assay, KBH5.0; assay type: cell-based; settings: KBH5.0 cells
Protocol: as §1, §2

[6] = system: KB3-1; assay: MTT-microtiter plate tetrazolinium cytotoxicity assay, KB3-1; assay type: cell-based; settings: Homo sapiens, KB 3-1, KB3-1 cells
Protocol: as §1, §2

[7] = system: HL60; assay: MTT-microtiter plate tetrazolinium cytotoxicity assay, HL60; assay type: cell-based; settings: Homo sapiens, HL-60, HL60 cells
Protocol: as §1, §2

Compound: CN(C)CCCn1c2c(c3ccc([N+](=O)[O-])cc3c1=O)C(=O)c1cc3c(cc1-2)OCO3 [Compound B]
- IC50 [1]: 2.4 µM
- IC50 [2]: 0.003 µM
- melting point: 191 to 192 °C
- IC50 [3]: 0.003 µM
- IC50 [4]: 0.004 µM
- IC50 [5]: 0.004 µM
- IC50 [6]: 0.004 µM
- IC50 [7]: 0.003 µM

— US6992088B2, “Nitro and amino substituted heterocycles as topoisomerase I targeting agents” (Rutgers, The State University of New Jersey, priority 2002, dated 2006)
